Measured values as given in patent US7812032B2 (Abbott Laboratories, priority 2006, dated 2010).
Where two headings read alike, the source gives them in different places. Each block holds one molecule with its values, some of them ahead of it.

Experiments:
[1] = system: human mixed lymphocyte reaction (MLR); assay: human mixed lymphocyte reaction (MLR) assay; assay type: cell-based; conditions: read-out: Human MLR IC50 ± S.E.M.
[2] = pharmacokinetics after single intravenous dose in cynomolgus monkey; assay type: in vivo; conditions: for t1/2: in vivo, iv, 2.5 mg/kg; for terminal elimination half-life (t1/2) compared to rapamycin: 2.5 mg/kg intravenous
[3] = rate of release of A-179578 from 316L stainless steel coupons coated with PC polymer; assay type: physicochemical; conditions: PC polymer coated 316L coupons, 0.01 M phosphate buffer pH 6.0
Source text: Rubber septa from lids from HPLC vials were removed from the vials and placed into glass vials so that the “Teflon” side faced up. These septa served as supports for the test samples. The test samples were 316L stainless steel coupons that had been previously coated with a biocompatible polymer containing phosphorylcholine side groups (PC polymer). Coronary stents are commonly made of 316L stainless steel and can be coated with the PC polymer to provide a depot site for loading drugs. The coated coupons, which serve to simulate stents, were placed onto the septa. By using a glass Hamilton Syringe, a solution of A-179578 and ethanol (10 μl) was applied to the surface of each coupon. The solution contained A-179578 (30.6 mg) dissolved in 100% ethanol (3.0 ml). The syringe was cleaned with ethanol between each application. The cap to the glass vial was placed on the vial loosely, thereby assuring proper ventilation. The coupon was allowed to dry for a minimum of 1.5 hours. Twelve (12) coupons were loaded in this way, six being used to determine the average amount of drug loaded onto the device and six being used to measure the time needed to release the drug from the devices.
The coupon was placed onto a 5210 Branson sonicator for one hour. The coupon was then removed from the solution, and the solution was assayed by HPLC.
The time release studies were performed by immersing and removing the individual coupons from fresh aliquots (10.0 ml) of 0.01 M phosphate buffer at a pH of 6.0 at each of the following time intervals; 5, 15, 30 and 60 minutes. For the remaining time points of 120, 180, 240, 300, 360 minutes, volumes of 5.0 ml of buffer were used. To facilitate mixing during the drug release phase, the samples were placed onto a Eberbach shaker set at low speed. All solution aliquots were assayed by HPLC after the testing of the last sample was completed.
The HPLC analysis was performed with a Hewlett Packard series 1100 instrument having the following settings: Injection Volume is 100 μl; Acquisition Time is 40 minutes; Flow Rate is 1.0 ml/min; Column Temperature is 40 degrees Celsius; Wavelength is 278 nm; Mobile Phase is 65% Acetonitrile/35% H2O; and Column is YMC ODS-A S5 μm, 4.6×250 mm (Part No. A12052546WT).

[4] = system: neointimal hyperplasia in porcine coronary arteries containing stents; assay: porcine coronary stent model, A-179578 eluted from BiodivYsio PC coronary stent, 28 days; assay type: in vivo
Source text: The control stents are polymer-coated without drugs. This is important, for the polymer itself must not stimulate neointimal hyperplasia to a substantial degree. As the eluted drug disappears, an inflammatory response to the polymer could conceivably result in a late “catch-up phenomenon” where the restenosis process is not stopped, but instead slowed. This phenomenon would result in restenosis at late dates in human subjects.
Stents were implanted in two blood vessels in each pig. Pigs used in this model were generally 2-4 months old and weighed 30-40 kg. Two coronary stents were thus implanted in each pig by visually assessing a “normal” stent:artery ratio of 1.1-1.2.
Beginning on the day of the procedure, pigs were given oral aspirin (325 mg daily) and continued for the remainder of their course. General anesthesia was achieved by means of intramuscular injection followed by intravenous ketamine (30 mg/kg) and xylazine (3 mg/kg). Additional medication at the time of induction included atropine (1 mg) and flocillin (1 g) administered intramuscularly. During the stenting procedure, an intraarterial bolus of 10,000 units of heparin was administered.
Arterial access was obtained by cutdown on the right external carotid and placement of an 8F sheath. After the procedure, the animals were maintained on a normal diet without cholesterol or other special supplementation.
The BiodivYsio stent was used with nominal vessel target size of 3.0 mm. Two coronary arteries per pig were assigned at random to deployment of the stents. The stent was either a drug eluting stent (polymer plus drug stent) or a stent coated with a polymer only (polymer only stent). The stents were delivered by means of standard guide catheters and wires. The stent balloons were inflated to appropriate sizes for less than 30 seconds.
Each pig had one polymer only stent and one polymer plus drug stent placed in separate coronary arteries, so that each pig would have one stent for drug and one for control. A sample size of 20 pigs total was chosen to detect a projected difference in neointimal thickness of 0.2 mm with a standard deviation of 0.15 mm, at a power of 0.95 and […] 0.02.
Animals were euthanized at 28 days for histopathologic examination and quantification. Following removal of the heart from the perfusion pump system, the left atrial appendage was removed for access to the proximal coronary arteries. Coronary arterial segments with injuries were dissected free of the epicardium. Segments containing lesions were isolated, thereby allowing sufficient tissue to contain uninvolved blood vessel at either end. […]
The severity of vessel injury and the neointimal response were measured by calibrated digital microscopy. […]

[5] = system: in-stent neointima formation in coronary arteries of adult miniature swine; assay: safety and efficacy of ABT-578 dosages on in-stent neointima formation, BiodivYsio OC stent in swine; assay type: in vivo, Yucatan miniature swine
Method: The purpose of this example was to evaluate the safety and efficacy of different drug dosages on neointima formation. […] In-stent neointima formation was measured at […] time intervals; 3 days, 1 month, and 3 months in the coronary arteries of adult miniature swine. Forty (40) animals were studied at each time interval (10 animals per dose). Each animal received one drug-coated stent and one control stent. The control stent contained no drug.
Potential local tissue toxicity was assessed at all time intervals by examining histopathologic changes in the stented region, adjacent coronary segments, perivascular tissue, and subserved myocardium. The mortality, angiographic implant and restudy data, histomorphometry data, and stent site histopathology were studied.

[6] = loading and release of ABT-578 from 15 mm BiodivYsio drug delivery stents; assay type: physicochemical; conditions: 15 mm BiodivYsio stents, 0.01 M phosphate buffer pH 6.0
Method: Twelve individual polymer-coated stents were placed on fixtures designed to hold the stent in a vertical position and the stents were immersed vertically in the drug solution for five minutes. The stents and fixtures were removed from the vials and excess drug solution was blotted away by contacting the stents with an absorbant material. The stents were then allowed to dry in air for 30 minutes in an inverted vertical position.
The stents were removed from the fixtures, and each stent was placed into 50/50 acetonitrile/phosphate buffer (pH 5.1, 2.0 ml) and sonicated for one hour. The stents were removed from the solution and solutions were assayed for concentration of drug, which allowed calculation of the amount of drug originally on the stents. This method was independently shown to remove at least 95% of the drug from the stent coating. On average, the stents contained 60 micrograms of drug ±20 micrograms.
The drug-loaded stents were placed on the fixtures and placed into 0.01 M phosphate buffer (pH=6.0, 1.9 ml) in individual vials. These samples were placed onto an Eberbach shaker set at low speed to provide back-and-forth agitation. To avoid approaching drug saturation in the buffer, the stents were transferred periodically to fresh buffer vials at the following points: 15, 30, 45, 60, 120, 135, 150, 165, 180, 240, 390 minutes. The dissolution buffer vials were assayed by HPLC for the drug concentration at the end of the drug release period studied. The data, represented as % cumulative release of the drug as a function of time, is shown in tabular form below: […]

[7] = porcine coronary artery, 28 days
[8] = one month, dose groups 3 and 4 vs control

IC50 [1]: 12.4 ± 5.3 nM
t1/2 [2]: 2.8 h
Molecule: 40-epi-N-[2′-pyridone]-rapamycin [Example 2-pyridone, reference compound]

terminal elimination half-life (t1/2) compared to rapamycin [2]: substantially shorter
Molecule: CO[C@H]1C[C@@H]2CC[C@@H](C)[C@@](O)(O2)C(=O)C(=O)N2CCCC[C@H]2C(=O)O[C@H]([C@H](C)C[C@@H]2CC[C@H](n3ncnn3)[C@H](OC)C2)CC(=O)[C@H](C)/C=C(\C)[C@@H](O)[C@@H](OC)C(=O)[C@H](C)C[C@H](C)/C=C/C=C/C=C/1C [Example 1B, 42-(2-tetrazolyl)-rapamycin]

Molecule: COC1CC2CCC(C)C(O)(O2)C(=O)C(=O)N2CCCCC2C(=O)OC(C(C)CC2CCC(n3cnnn3)C(OC)C2)CC(=O)C(C)C=C(C)C(O)C(OC)C(=O)C(C)CC(C)C=CC=CC=C1C (centres unmarked) [Example 1C, 42-(1-tetrazolyl)-rapamycin]
Percent Release ([3]; 0.00 min): 0.00
Percent Release ([3]; 5.00 min): 1.87
Percent Release ([3]; 15.00 min): 2.97
Percent Release ([3]; 30.00 min): 3.24
Percent Release ([3]; 60.00 min): 3.29
Percent Release ([3]; 180.00 min): 4.36
Percent Release ([3]; 240.00 min): 4.37
Percent Release ([3]; 300.00 min): 6.34
Percent Release ([3]; 360.00 min): 7.88
lumen area vs polymer only stent [4, 7]: greater lumen area
neointimal area vs polymer only stent [4, 7]: lower neointimal area
neointimal thickness vs polymer only stent [4, 7]: lower neointimal thickness
neointimal hyperplasia ([4]; stent with polymer placed in porcine coronary artery): reduction in neointimal hyperplasia

Molecule: CO[C@H]1C[C@@H]2CC[C@@H](C)[C@@](O)(O2)C(=O)C(=O)N2CCCC[C@H]2C(=O)O[C@H]([C@H](C)C[C@@H]2CC[C@H](n3cnnn3)[C@H](OC)C2)CC(=O)[C@H](C)/C=C(\C)[C@@H](O)[C@@H](OC)C(=O)[C@H](C)C[C@H](C)/C=C/C=C/C=C/1C [Example 1C, 42-(1-tetrazolyl)-rapamycin]
local coronary arterial wall toxicity (medial necrosis or stent malapposition) ([5]; any dose group incl. approximately 27 μg/mm, any time interval): no local coronary arterial wall toxicity
histologic % stenosis ([5]; one month, dose group 3 vs control): tendency towards decreased
Intima area normalized to injury score ([5]; one month, dose groups 3 and 4 (10 and 27 μg/mm) vs control): significantly decreased
absolute intima area [5, 8]: trends for decreases
intima thickness [5, 8]: trends for decreases
vessel wall toxicity ([5]; one month, even at the highest dose (27 μg/mm)): no evidence of vessel wall toxicity
neointima formation in stented coronary arteries ([5]; one-month group, locally eluted): significant inhibitory effect
endothelial recovery over the stent struts ([5]; three days after implant, regardless of dosage): did not appear retarded
neointima cross-sectional area and % area stenosis of the lumen ([5]; three-month period): weak trends for decreases
histomorphometric parameters of stented coronary arterial dimension ([5]; three-month period, between the dose groups): no significant differences
terminal elimination half-life (t1/2) compared to rapamycin [2]: substantially shorter
% Cumulative Release of Drug ([6]; 15 min): 0.3%
% Cumulative Release of Drug ([6]; 30 min): 1.1%
% Cumulative Release of Drug ([6]; 45 min): 2.1%
% Cumulative Release of Drug ([6]; 60 min): 3.2%
% Cumulative Release of Drug ([6]; 120 min): 4.3%
% Cumulative Release of Drug ([6]; 135 min): 5.9%
% Cumulative Release of Drug ([6]; 150 min): 6.3%
% Cumulative Release of Drug ([6]; 165 min): 6.8%
% Cumulative Release of Drug ([6]; 180 min): 7.4%
% Cumulative Release of Drug ([6]; 240 min): 10.8%
% Cumulative Release of Drug ([6]; 390 min): 13.2%

IC50 [1]: 0.43 ± 0.2 nM
t1/2 [2]: 13.3 h
Molecule: COC1CC2CCC(C)C(O)(O2)C(=O)C(=O)N2CCCCC2C(=O)OC(C(C)CC2CCC(n3ccc(=O)cc3)C(OC)C2)CC(=O)C(C)C=C(C)C(O)C(OC)C(=O)C(C)CC(C)C=CC=CC=C1C (stereo not drawn) [Example 4-pyridone, 40-epi-N-[4′-pyridone]-rapamycin, reference compound]

IC50 ([1]; Homo sapiens, Lymphocyte): 0.91 ± 0.36 nM
Molecule: CO[C@H]1C[C@@H]2CC[C@@H](C)[C@@](O)(O2)C(=O)C(=O)N2CCCC[C@H]2C(=O)O[C@H]([C@H](C)C[C@@H]2CC[C@@H](O)[C@H](OC)C2)CC(=O)[C@H](C)/C=C(\C)[C@@H](O)[C@@H](OC)C(=O)[C@H](C)C[C@H](C)/C=C/C=C/C=C/1C [Rapamycin]
